# Data taken from PubChem BioAssay AID1918930 (Molecular Pharmacology Branch, DTP, NCI, 2023).
# Tested on: 233499-124-R-J3-PDC complex spheroid viability, % test/control
# Experiment: Anticancer human tumor 233499-124-R-J3-PDC patient-derived colon adenocarcinoma cell line growth inhibition
# Conditions: for IC50: curve of first compound; for viability, T/C: stronger effect = lower value
# How it was run: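 Drug combinations with the LSD1 inhibitor iadademstat tested on tumor cells co-cultured as spheroids with endothelial cells and mesenchymal stem cells. Concentrations descended in half-log increments from clinical Cmax or 10 microM.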
# [1] = second compound 0.1 µM, first compound 0.0316 µM
# [2] = second compound 0.1 µM, first compound 0.1 µM
# [3] = second compound 0.1 µM, first compound 0.316 µM
# [4] = second compound 0.1 µM, first compound 1 µM
# [5] = second compound 0.1 µM, first compound 3.16 µM
# [6] = second compound 0.1 µM, first compound 10 µM
# [7] = second compound 0.316 µM, first compound 0.0316 µM
# [8] = second compound 0.316 µM, first compound 0.1 µM
# [9] = second compound 0.316 µM, first compound 0.316 µM
# [10] = second compound 0.316 µM, first compound 1 µM
# [11] = second compound 0.316 µM, first compound 3.16 µM
# [12] = second compound 0.316 µM, first compound 10 µM
# [13] = second compound 1 µM, first compound 0.0316 µM
# [14] = second compound 1 µM, first compound 0.1 µM
# [15] = second compound 1 µM, first compound 0.316 µM
# [16] = second compound 1 µM, first compound 1 µM
# [17] = second compound 1 µM, first compound 3.16 µM
# [18] = second compound 1 µM, first compound 10 µM
# [19] = second compound 3.16 µM, first compound 0.0316 µM
# [20] = second compound 3.16 µM, first compound 0.1 µM
# [21] = second compound 3.16 µM, first compound 0.316 µM
# [22] = second compound 3.16 µM, first compound 1 µM
# [23] = second compound 3.16 µM, first compound 3.16 µM
# [24] = second compound 3.16 µM, first compound 10 µM
# [25] = second compound 10 µM, first compound 0.0316 µM
# [26] = second compound 10 µM, first compound 0.1 µM
# [27] = second compound 10 µM, first compound 0.316 µM
# [28] = second compound 10 µM, first compound 1 µM
# [29] = second compound 10 µM, first compound 3.16 µM
# [30] = second compound 10 µM, first compound 10 µM
# [31] = second compound 0.1 µM, first compound 0.00316 µM
# [32] = second compound 0.1 µM, first compound 0.01 µM
# [33] = second compound 0.316 µM, first compound 0.00316 µM
# [34] = second compound 0.316 µM, first compound 0.01 µM
# [35] = second compound 1 µM, first compound 0.00316 µM
# [36] = second compound 1 µM, first compound 0.01 µM
# [37] = second compound 3.16 µM, first compound 0.00316 µM
# [38] = second compound 3.16 µM, first compound 0.01 µM
# [39] = second compound 10 µM, first compound 0.00316 µM
# [40] = second compound 10 µM, first compound 0.01 µM
# 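Note: spheroids exposed to agents for one week before readout.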
structure (smiles),measurement,setting,value
CC(C)c1c(-c2ccccc2)nc2c(C#N)c[nH]n2c1=O + NC1CC1c1ccc(-c2cccc(O)c2)cc1,IC50,second compound 0.1 µM,> 10 µM
same,IC50,second compound 0.316 µM,> 10 µM
same,IC50,second compound 1 µM,> 10 µM
same,IC50,second compound 3.16 µM,> 10 µM
same,IC50,second compound 10 µM,> 10 µM
same,"viability, T/C",[1],108%
same,"viability, T/C",[2],117%
same,"viability, T/C",[3],110%
same,"viability, T/C",[4],100%
same,"viability, T/C",[5],108%
same,"viability, T/C",[6],104%
same,"viability, T/C",[7],100%
same,"viability, T/C",[8],110%
same,"viability, T/C",[9],109%
same,"viability, T/C",[10],118%
same,"viability, T/C",[11],117%
same,"viability, T/C",[12],110%
same,"viability, T/C",[13],86.8%
same,"viability, T/C",[14],93.6%
same,"viability, T/C",[15],95.1%
same,"viability, T/C",[16],92.8%
same,"viability, T/C",[17],105%
same,"viability, T/C",[18],116%
same,"viability, T/C",[19],87.6%
same,"viability, T/C",[20],93.5%
same,"viability, T/C",[21],97.3%
same,"viability, T/C",[22],98.9%
same,"viability, T/C",[23],114%
same,"viability, T/C",[24],109%
same,"viability, T/C",[25],76.1%
same,"viability, T/C",[26],78%
same,"viability, T/C",[27],93.3%
same,"viability, T/C",[28],101%
same,"viability, T/C",[29],109%
same,"viability, T/C",[30],114%
COc1ccc([C@@H](O)c2cc(-c3ncnc4cc(N5CCOCC5)ccc34)c(F)cc2Cl)nn1 + NC1CC1c1ccc(-c2cccc(O)c2)cc1,IC50,second compound 0.1 µM,5.19 µM
same,IC50,second compound 0.316 µM,6.67 µM
same,IC50,second compound 1 µM,5.49 µM
same,IC50,second compound 3.16 µM,3.62 µM
same,IC50,second compound 10 µM,1.71 µM
same,"viability, T/C",[1],97.3%
same,"viability, T/C",[2],93.4%
same,"viability, T/C",[3],95.7%
same,"viability, T/C",[4],71.5%
same,"viability, T/C",[5],63%
same,"viability, T/C",[6],36.3%
same,"viability, T/C",[7],93.3%
same,"viability, T/C",[8],98.3%
same,"viability, T/C",[9],95.5%
same,"viability, T/C",[10],78.6%
same,"viability, T/C",[11],78.5%
same,"viability, T/C",[12],36.1%
same,"viability, T/C",[13],91.4%
same,"viability, T/C",[14],80.4%
same,"viability, T/C",[15],79.1%
same,"viability, T/C",[16],62%
same,"viability, T/C",[17],63.1%
same,"viability, T/C",[18],40.1%
same,"viability, T/C",[19],92.1%
same,"viability, T/C",[20],95.8%
same,"viability, T/C",[21],75.9%
same,"viability, T/C",[22],67.3%
same,"viability, T/C",[23],57.7%
same,"viability, T/C",[24],26.9%
same,"viability, T/C",[25],69.5%
same,"viability, T/C",[26],80.2%
same,"viability, T/C",[27],57.7%
same,"viability, T/C",[28],49.7%
same,"viability, T/C",[29],51.2%
same,"viability, T/C",[30],21.5%
CC[C@@]1(O)C(=O)OCc2c1cc1n(c2=O)Cc2cc3c(CN(C)C)c(O)ccc3nc2-1 + NC1CCC(NC2CC2c2ccccc2)CC1,IC50,second compound 0.1 µM,> 0.1 µM
same,IC50,second compound 0.316 µM,0.0316 µM
same,IC50,second compound 1 µM,> 0.1 µM
same,IC50,second compound 3.16 µM,> 0.1 µM
same,IC50,second compound 10 µM,> 0.1 µM
same,"viability, T/C","second compound 0.1 µM, first compound 0.000316 µM",104%
same,"viability, T/C","second compound 0.1 µM, first compound 0.001 µM",76.6%
same,"viability, T/C",[31],79.7%
same,"viability, T/C",[32],64%
same,"viability, T/C",[1],71.9%
same,"viability, T/C",[2],87.9%
same,"viability, T/C","second compound 0.316 µM, first compound 0.000316 µM",93.7%
same,"viability, T/C","second compound 0.316 µM, first compound 0.001 µM",80.1%
same,"viability, T/C",[33],88.9%
same,"viability, T/C",[34],47.5%
same,"viability, T/C",[7],54.5%
same,"viability, T/C",[8],66.1%
same,"viability, T/C","second compound 1 µM, first compound 0.000316 µM",65.9%
same,"viability, T/C","second compound 1 µM, first compound 0.001 µM",63.9%
same,"viability, T/C",[35],50.3%
same,"viability, T/C",[36],51.5%
same,"viability, T/C",[13],71.2%
same,"viability, T/C",[14],63.8%
same,"viability, T/C","second compound 3.16 µM, first compound 0.000316 µM",92%
same,"viability, T/C","second compound 3.16 µM, first compound 0.001 µM",74.9%
same,"viability, T/C",[37],56.8%
same,"viability, T/C",[38],53.6%
same,"viability, T/C",[19],58.8%
same,"viability, T/C",[20],69.9%
same,"viability, T/C","second compound 10 µM, first compound 0.000316 µM",76.9%
same,"viability, T/C","second compound 10 µM, first compound 0.001 µM",82.9%
same,"viability, T/C",[39],68.4%
same,"viability, T/C",[40],48%
same,"viability, T/C",[25],60.8%
same,"viability, T/C",[26],80.7%
COc1cc(C2c3cc4c(cc3C(OC3OC5COC(C)OC5C(O)C3O)C3COC(=O)C23)OCO4)cc(OC)c1O (stereo not given) + NC1CCC(NC2CC2c2ccccc2)CC1,IC50,second compound 0.1 µM,> 3 µM
same,IC50,second compound 0.316 µM,> 3 µM
same,IC50,second compound 1 µM,> 3 µM
same,IC50,second compound 3.16 µM,> 3 µM
same,IC50,second compound 10 µM,1.29 µM
same,"viability, T/C","second compound 0.1 µM, first compound 0.00949 µM",96.6%
same,"viability, T/C","second compound 0.1 µM, first compound 0.03 µM",102%
same,"viability, T/C","second compound 0.1 µM, first compound 0.0949 µM",80.8%
same,"viability, T/C","second compound 0.1 µM, first compound 0.3 µM",88.8%
same,"viability, T/C","second compound 0.1 µM, first compound 0.949 µM",81%
same,"viability, T/C","second compound 0.1 µM, first compound 3 µM",75.5%
same,"viability, T/C","second compound 0.316 µM, first compound 0.00949 µM",119%
same,"viability, T/C","second compound 0.316 µM, first compound 0.03 µM",115%
same,"viability, T/C","second compound 0.316 µM, first compound 0.0949 µM",89%
same,"viability, T/C","second compound 0.316 µM, first compound 0.3 µM",95%
same,"viability, T/C","second compound 0.316 µM, first compound 0.949 µM",89.9%
same,"viability, T/C","second compound 0.316 µM, first compound 3 µM",73.4%
same,"viability, T/C","second compound 1 µM, first compound 0.00949 µM",97.1%
same,"viability, T/C","second compound 1 µM, first compound 0.03 µM",81.3%
same,"viability, T/C","second compound 1 µM, first compound 0.0949 µM",80.1%
same,"viability, T/C","second compound 1 µM, first compound 0.3 µM",77.3%
same,"viability, T/C","second compound 1 µM, first compound 0.949 µM",65.7%
same,"viability, T/C","second compound 1 µM, first compound 3 µM",92.2%
same,"viability, T/C","second compound 3.16 µM, first compound 0.00949 µM",91.5%
same,"viability, T/C","second compound 3.16 µM, first compound 0.03 µM",83.7%
same,"viability, T/C","second compound 3.16 µM, first compound 0.0949 µM",81.4%
same,"viability, T/C","second compound 3.16 µM, first compound 0.3 µM",65.9%
same,"viability, T/C","second compound 3.16 µM, first compound 0.949 µM",82%
same,"viability, T/C","second compound 3.16 µM, first compound 3 µM",57.6%
same,"viability, T/C","second compound 10 µM, first compound 0.00949 µM",97.1%
same,"viability, T/C","second compound 10 µM, first compound 0.03 µM",77.6%
same,"viability, T/C","second compound 10 µM, first compound 0.0949 µM",74.7%
same,"viability, T/C","second compound 10 µM, first compound 0.3 µM",60.5%
same,"viability, T/C","second compound 10 µM, first compound 0.949 µM",63.7%
same,"viability, T/C","second compound 10 µM, first compound 3 µM",36.4%
Nc1ncn(C2CC(O)C(CO)O2)c(=O)n1 (stereo not given) + NC1CCC(NC2CC2c2ccccc2)CC1,IC50,second compound 0.1 µM,> 1 µM
same,IC50,second compound 0.316 µM,> 1 µM
same,IC50,second compound 1 µM,> 1 µM
same,IC50,second compound 3.16 µM,> 1 µM
same,IC50,second compound 10 µM,> 1 µM
same,"viability, T/C",[31],77.1%
same,"viability, T/C",[32],83.9%
same,"viability, T/C",[1],83.8%
same,"viability, T/C",[2],69%
same,"viability, T/C",[3],110%
same,"viability, T/C",[4],111%
same,"viability, T/C",[33],92.6%
same,"viability, T/C",[34],96.8%
same,"viability, T/C",[7],87.2%
same,"viability, T/C",[8],86.8%
same,"viability, T/C",[9],98.8%
same,"viability, T/C",[10],77.6%
same,"viability, T/C",[35],89.3%
same,"viability, T/C",[36],75.2%
same,"viability, T/C",[13],74.8%
same,"viability, T/C",[14],72.5%
same,"viability, T/C",[15],85.1%
same,"viability, T/C",[16],94.8%
same,"viability, T/C",[37],82.9%
same,"viability, T/C",[38],72.2%
same,"viability, T/C",[19],73.6%
same,"viability, T/C",[20],82.6%
same,"viability, T/C",[21],55.8%
same,"viability, T/C",[22],101%
same,"viability, T/C",[39],74.2%
same,"viability, T/C",[40],71.2%
same,"viability, T/C",[25],68.7%
same,"viability, T/C",[26],65.8%
same,"viability, T/C",[27],73.1%
same,"viability, T/C",[28],82.1%
